Measurements as given in US20230391760A1, “HETEROCYCLIC GLP-1 AGONISTS” (Gasherbrum Bio, Inc., priority 2020, published 2023).

These compounds were tested against GLP-1 Receptor (Homo sapiens, UniProt P43220) (assay: GLP-1R agonist cAMP stimulation assay (HEK293/GLP1R/CRE-LUC cells, cAMP dynamic 2 Kit)). Settings: HEK293/CRE-Luc cell line stably expressing the GLP-1 Receptor, 30 min at 37° C.
Assay type: cell-based
Method in brief: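 HEK293 cells stably expressing human GLP-1R with CRE-luciferase, 1000 cells/well in DPBS with 0.5 mM IBMX and 0.1% BSA, treated with compound in 1/2-log serial dilution for 30 min at 37 °C. cAMP then detected by HTRF (cAMP-d2 plus anti-cAMP cryptate), 1 h at room temperature in the dark.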

Sequence of GLP-1 Receptor (P43220 24-463, species assumed): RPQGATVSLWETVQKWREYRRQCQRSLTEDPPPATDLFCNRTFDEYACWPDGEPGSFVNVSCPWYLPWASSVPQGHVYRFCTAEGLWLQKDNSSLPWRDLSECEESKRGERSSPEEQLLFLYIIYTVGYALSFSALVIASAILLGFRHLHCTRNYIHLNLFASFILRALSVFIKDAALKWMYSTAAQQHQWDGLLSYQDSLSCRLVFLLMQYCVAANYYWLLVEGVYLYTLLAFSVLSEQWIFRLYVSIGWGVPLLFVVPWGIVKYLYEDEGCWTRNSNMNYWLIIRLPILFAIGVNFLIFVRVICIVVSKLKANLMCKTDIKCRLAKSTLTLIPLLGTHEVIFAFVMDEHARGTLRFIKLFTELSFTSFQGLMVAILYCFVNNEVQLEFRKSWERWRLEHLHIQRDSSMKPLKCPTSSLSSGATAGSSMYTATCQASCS

EC50 | Structure (SMILES)
0.033 nM | C[C@H]1CN(c2ncc(F)c(OCc3ccc(Cl)cc3F)n2)CCN1Cc1nc2cc(-c3nnc(C(F)(F)F)[nH]3)cnc2n1C[C@@H]1CCO1 [Compound 527a, 4-[(4-chloro-2-fluorophenyl)methoxy]-5-fluoro-2-[(3S)-3-methyl-4-[(3-{[(2S)-oxetan-2-yl]methyl}-6-[5-(trifluoromethyl)-4H-1,2,4-triazol-3-yl]-3H-imidazo[4,5-b]pyridin-2-yl)methyl]piperazin-1-yl]pyrimidine]
0.23 nM | CC1(c2ccc(Cl)cc2F)Oc2cccc(C3CCN(Cc4nc5cc(-c6nnc(C(F)(F)F)[nH]6)cnc5n4C[C@@H]4CCCO4)CC3)c2O1 (stereo partly drawn) [Compound 246a, 4-[2-(4-chloro-2-fluorophenyl)-2-methyl-2H-1,3-benzodioxol-4-yl]-1-[(3-{[(2S)-oxolan-2-yl]methyl}-6-[5-(trifluoromethyl)-4H-1,2,4-triazol-3-yl]-3H-imidazo[4,5-b]pyridin-2-yl)methyl]piperidine]
0.087 nM | N#Cc1ccc(COc2cc(N3CCN(Cc4nc5cc(-c6nnc(C(F)(F)F)[nH]6)ncc5n4C[C@@H]4CCO4)CC3)ccc2F)c(F)c1 [Compound 469a, 3-fluoro-4-[(2-fluoro-5-{4-[(3-{[(2S)-oxetan-2-yl]methyl}-6-[5-(trifluoromethyl)-4H-1,2,4-triazol-3-yl]-3H-imidazo[4,5-c]pyridin-2-yl)methyl]piperazin-1-yl}phenoxy)methyl]benzonitrile]
1.17 nM | CC(=O)Nc1ccc2c(c1)nc(CN1CCC(c3cccc4c3OC(C)(c3ccc(Cl)cc3F)O4)CC1)n2C[C@@H]1CCO1 (stereo partly drawn) [Compound 115a, N-(2-((4-(2-(4-chloro-2-fluorophenyl)-2-methylbenzo[d][1,3]dioxol-4-yl)piperidin-1-yl)methyl)-1-((S)-oxetan-2-ylmethyl)-1H-benzo[d]imidazol-5-yl)acetamide]
0.062 nM | CC1(c2ccc(Cl)cc2F)Oc2cccc(C3CCN(Cc4nc5cc(NC(=O)c6cccnc6)ccc5n4C[C@@H]4CCO4)CC3)c2O1 (stereo partly drawn) [Compound 235a, N-(2-((4-(2-(4-chloro-2-fluorophenyl)-2-methylbenzo[d][1,3]dioxol-4-yl)piperidin-1-yl)methyl)-1-(((S)-oxetan-2-yl)methyl)-1H-benzo[d]imidazol-5-yl)nicotinamide]
8.9 nM | CC1(c2ccc(Cl)cc2F)Oc2cccc(C3CCN(Cc4nc5cc(-c6nnc(C(F)(F)F)[nH]6)ccc5n4C[C@@H]4CCO4)CC3)c2O1 (single isomer, unassigned) [Compound 229b]
0.19 nM | CO[C@H](C)Cn1c(CN2CCC(c3cccc4c3O[C@@](C)(c3ccc(Cl)cn3)O4)CC2)nc2cc(-c3noc(=O)[nH]3)ncc21 [Compound 466a, 3-[2-({4-[(2S)-2-(5-chloropyridin-2-yl)-2-methyl-2H-1,3-benzodioxol-4-yl]piperidin-1-yl}methyl)-3-[(2R)-2-methoxypropyl]-3H-imidazo[4,5-c]pyridin-6-yl]-4,5-dihydro-1,2,4-oxadiazol-5-one]
0.079 nM | CC1(c2ccc(Cl)cn2)Oc2cccc(C3CCN(Cc4nc5cc(-c6noc(=O)[nH]6)ncc5n4C[C@@H]4CCO4)CC3)c2O1 (stereo partly drawn) [Compound 343a, 3-[2-({4-[2-(5-chloropyridin-2-yl)-2-methyl-2H-1,3-benzodioxol-4-yl]piperidin-1-yl}methyl)-3-{[(2S)-oxetan-2-yl]methyl}-3H-imidazo[4,5-c]pyridin-6-yl]-4,5-dihydro-1,2,4-oxadiazol-5-one]
0.16 nM | Fc1cc(Cl)ccc1COc1nc(C2CCN(Cc3nc4cc(-c5nnc(C(F)(F)F)[nH]5)nnc4n3C[C@@H]3CCO3)CC2)ncc1F [Compound 510a, 4-[(4-chloro-2-fluorophenyl)methoxy]-5-fluoro-2-{1-[(7-{[(2S)-oxetan-2-yl]methyl}-3-[5-(trifluoromethyl)-4H-1,2,4-triazol-3-yl]-7H-imidazo[4,5-c]pyridazin-6-yl)methyl]piperidin-4-yl}pyrimidine]
0.026 nM | CC1(c2ccc(C#N)cc2Cl)Oc2cccc(C3CCN(Cc4nc5cc(-c6nnc(C(F)(F)F)[nH]6)ccc5n4C[C@@H]4CCO4)CC3)c2O1 (stereo partly drawn) [Compound 353a, 3-chloro-4-(2-methyl-4-{1-[(1-{[(2S)-oxetan-2-yl]methyl}-5-[5-(trifluoromethyl)-4H-1,2,4-triazol-3-yl]-1H-1,3-benzodiazol-2-yl)methyl]piperidin-4-yl}-2H-1,3-benzodioxol-2-yl)benzonitrile]
0.17 nM | O=c1[nH]c(-c2cc3nc(CN4CCC(c5cccc6c5OC[C@@H](c5ccc(Cl)cc5)O6)CC4)n(C[C@@H]4CCO4)c3cn2)no1 [Compound 422a, 3-[2-({4-[(2R)-2-(4-chlorophenyl)-2,3-dihydro-1,4-benzodioxin-5-yl]piperidin-1-yl}methyl)-3-{[(2S)-oxetan-2-yl]methyl}-3H-imidazo[4,5-c]pyridin-6-yl]-4,5-dihydro-1,2,4-oxadiazol-5-one]
0.0088 nM | CC1(c2ccc(Cl)cc2F)Oc2c(F)ccc(C3CCN(Cc4nc5cc(-c6nnc(C(F)(F)F)[nH]6)ncc5n4C[C@@H]4CCO4)CC3)c2O1 (stereo partly drawn) [Compound 459a, 4-[2-(4-chloro-2-fluorophenyl)-7-fluoro-2-methyl-2H-1,3-benzodioxol-4-yl]-1-[(3-{[(2S)-oxetan-2-yl]methyl}-6-[5-(trifluoromethyl)-4H-1,2,4-triazol-3-yl]-3H-imidazo[4,5-c]pyridin-2-yl)methyl]piperidine]
7.2 nM | O=C1CCCN1c1ccc2c(c1)nc(CN1CCC(c3cccc(OCc4ccc(Cl)cc4F)n3)CC1)n2C[C@@H]1CCO1 [Compound 119a, 1-{2-[(4-{6-[(4-chloro-2-fluorophenyl)methoxy]pyridin-2-yl}piperidin-1-yl)methyl]-1-{[(2S)-oxetan-2-yl]methyl}-1H-1,3-benzodiazol-5-yl}pyrrolidin-2-one]
0.49 nM | COC(=O)Nc1ccc2c(c1)nc(CN1CCC(c3cccc(OCc4ccc(Cl)cc4F)n3)CC1)n2C[C@@H]1CCO1 [Compound 146a, methyl N-{2-[(4-{6-[(4-chloro-2-fluorophenyl)methoxy]pyridin-2-yl}piperidin-1-yl)methyl]-1-{[(2S)-oxetan-2-yl]methyl}-1H-1,3-benzodiazol-5-yl}carbamate]
0.1 nM | Fc1cc(Cl)ccc1COc1cc(C2CCN(Cc3nc4cc(-c5nnc(C(F)(F)F)[nH]5)ncc4n3C[C@@H]3CCO3)CC2F)ccc1F (stereo partly drawn) [Compound 478a, (3,4-trans)-4-{3-[(4-chloro-2-fluorophenyl)methoxy]-4-fluorophenyl}-3-fluoro-1-[(3-{[(2S)-oxetan-2-yl]methyl}-6-[5-(trifluoromethyl)-4H-1,2,4-triazol-3-yl]-3H-imidazo[4,5-c]pyridin-2-yl)methyl]piperidine]
2.7 nM | CO[C@@H](C)Cn1c(CN2CCC(c3cccc4c3OC(C)(c3ccc(Cl)cn3)O4)CC2)nc2cc(-c3noc(=O)[nH]3)ncc21 (stereo partly drawn) [Compound 437a, 3-[2-({4-[2-(5-chloropyridin-2-yl)-2-methyl-2H-1,3-benzodioxol-4-yl]piperidin-1-yl}methyl)-3-[(2S)-2-methoxypropyl]-3H-imidazo[4,5-c]pyridin-6-yl]-4,5-dihydro-1,2,4-oxadiazol-5-one]
0.072 nM | CO[C@H](C)Cn1c(CN2CCC(c3cccc4c3O[C@@](C)(c3ccc(Cl)cc3F)O4)CC2)nc2cc(-c3noc(=O)[nH]3)ncc21 [Compound 419a, 3-[2-({4-[(2S)-2-(4-chloro-2-fluorophenyl)-2-methyl-2H-1,3-benzodioxol-4-yl]piperidin-1-yl}methyl)-3-[(2R)-2-methoxypropyl]-3H-imidazo[4,5-c]pyridin-6-yl]-4,5-dihydro-1,2,4-oxadiazol-5-one]
0.044 nM | N#Cc1ccc(COc2cccc(N3CCN(Cc4nc5cc(-c6nnc(C(F)(F)F)[nH]6)nnc5n4C[C@@H]4CCO4)CC3)n2)c(F)c1 [Compound 493a, 3-fluoro-4-{[(6-{4-[(7-{[(2S)-oxetan-2-yl]methyl}-3-[5-(trifluoromethyl)-4H-1,2,4-triazol-3-yl]-7H-imidazo[4,5-c]pyridazin-6-yl)methyl]piperazin-1-yl}pyridin-2-yl)oxy]methyl}benzonitrile]
0.0063 nM | C[C@]1(c2ccc(Cl)cc2F)Oc2cccc(C3CCN(Cc4nc5cc(-c6noc(=O)[nH]6)ncc5n4C[C@@H]4CCO4)CC3)c2O1 [Compound 375a, 3-[2-({4-[(2S)-2-(4-chloro-2-fluorophenyl)-2-methyl-2H-1,3-benzodioxol-4-yl]piperidin-1-yl}methyl)-3-{[(2S)-oxetan-2-yl]methyl}-3H-imidazo[4,5-c]pyridin-6-yl]-4,5-dihydro-1,2,4-oxadiazol-5-one]
0.83 nM | O=C(O)c1ccc2c(c1)nc(CN1CCC(c3cccc(OCc4ccc(Cl)cc4F)n3)CC1)n2C[C@@H]1CCO1 [Compound 213a, 2-[(4-{6-[(4-chloro-2-fluorophenyl)methoxy]pyridin-2-yl}piperidin-1-yl)methyl]-1-{[(2S)-oxetan-2-yl]methyl}-1H-1,3-benzodiazole-5-carboxylic acid]
0.23 nM | C[C@]1(c2ccc(Cl)cn2)Oc2cccc(C3CCN(Cc4nc5cc(-c6nnn[nH]6)nnc5n4C[C@@H]4CCO4)CC3)c2O1 [Compound 461a, 5-chloro-2-[(2S)-2-methyl-4-{1-[(7-{[(2S)-oxetan-2-yl]methyl}-3-(1H-1,2,3,4-tetrazol-5-yl)-7H-imidazo[4,5-c]pyridazin-6-yl)methyl]piperidin-4-yl}-2H-1,3-benzodioxol-2-yl]pyridine]
0.95 nM | C[C@]1(c2ccc(Cl)cn2)Oc2cccc(C3CCN(Cc4nc5cc(-c6n[nH]c(C(F)(F)F)n6)cnc5n4C[C@@H]4CCO4)CC3)c2O1 (single isomer, unassigned) [Compound 333c]
0.45 nM | C[C@]1(c2ccc(Cl)cc2F)Oc2cccc(C3CCN(Cc4nc5cc(-c6nnc(C7CC7)[nH]6)cnc5n4C[C@@H]4CCO4)CC3)c2O1 [Compound 282a, 4-[(2S)-2-(4-chloro-2-fluorophenyl)-2-methyl-2H-1,3-benzodioxol-4-yl]-1-{[6-(5-cyclopropyl-4H-1,2,4-triazol-3-yl)-3-{[(2S)-oxetan-2-yl]methyl}-3H-imidazo[4,5-b]pyridin-2-yl]methyl}piperidine]
